Experimental findings from PubChem BioAssay AID256 (DTP/NCI, 2004) are described below.

The experiment relates to CD2F1 mice, L1210 leukemia ip, survival T/C. Kind of experiment: NCI In Vivo Anticancer Drug Screen. Data for tumor model L1210 Leukemia (intraperitoneal) in CD2F1 (CDF1) mice. The settings on record: higher = longer survival. In outline: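 Transplantable tumor in mice; compound-treated vs vehicle-treated groups. Read-out = treated/control ratio of the measured endpoint.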

[1] abbreviates: endpoint: mean survival time, dose: 100.0 mg/kg/injection, schedule: Q04DX003 (ip), vehicle: saline.
[2] abbreviates: endpoint: mean survival time, dose: 100.0 mg/kg/injection, schedule: Q04DX003 (ip), vehicle: saline with Tween-80.
[3] abbreviates: endpoint: mean survival time, dose: 200.0 mg/kg/injection, schedule: Q04DX003 (ip), vehicle: saline with Tween-80.
The mark [4] stands for this setting: endpoint: mean survival time, dose: 400.0 mg/kg/injection, schedule: Q04DX003 (ip), vehicle: saline with Tween-80.
The mark [5] stands for this setting: endpoint: mean survival time, dose: 100.0 mg/kg/injection, schedule: Q01DX001 (ip), vehicle: saline with Tween-80.
The mark [6] stands for this setting: endpoint: mean survival time, dose: 200.0 mg/kg/injection, schedule: Q01DX001 (ip), vehicle: saline with Tween-80.
Where [7] appears, read: endpoint: mean survival time, dose: 100.0 mg/kg/injection, schedule: Q01DX009 (ip), vehicle: saline with Tween-80.
[8] abbreviates: endpoint: mean survival time, dose: 75.0 mg/kg/injection, schedule: Q01DX001 (ip), vehicle: saline.

The structures appear in SMILES notation. “And” between values parts separate entries of the source, which are not always exact repeats. Identical values can stand only once. Inconclusive results and toxic doses are left out.

With `COc1cccc2c1C(=O)c1c(O)c3c(c(O)c1C2=O)C[C@@](O)(/C(C)=N/NC(=O)c1ccc(Cl)cc1)C[C@@H]3OC1CC(N)C(O)C(C)O1` (some centres not stated), the T/C was 96 % of control (endpoint: mean survival time, dose: 0.5 mg/kg/injection, schedule: Q01DX009 (ip), vehicle: saline); 110 % of control (endpoint: mean survival time, dose: 0.5 mg/kg/injection, schedule: Q01DX009 (ip), vehicle: suspension in saline); 115 % of control (endpoint: mean survival time, dose: 1.0 mg/kg/injection, schedule: Q01DX009 (ip), vehicle: suspension in saline); 122 % of control (endpoint: mean survival time, dose: 2.0 mg/kg/injection, schedule: Q01DX009 (ip), vehicle: saline); 118 % of control (endpoint: mean survival time, dose: 2.0 mg/kg/injection, schedule: Q01DX009 (ip), vehicle: suspension in saline); 108 % of control (endpoint: mean survival time, dose: 16.0 mg/kg/injection, schedule: Q01DX009 (ip), vehicle: saline).

Regarding `OC(C1CCCCN1)C1CC(c2ccccc2)Nc2c(Cl)cc(Cl)cc21` (configuration not stated), the T/C under setting [1] was 97 % of control.

With `N=C(N)c1ccc(N=Nc2c(O)ccc3cc(O)ccc23)cc1`, the T/C is, setting by setting: (endpoint: median survival time, dose: 12.5 mg/kg/injection, schedule: Q01DX005 (ip), vehicle: Klucel (hydroxypropylcellulose) (HPC)) 104 % of control and 107 % of control; (endpoint: median survival time, dose: 25.0 mg/kg/injection, schedule: Q01DX005 (ip), vehicle: Klucel (hydroxypropylcellulose) (HPC)) 100 % of control and 102 % of control; (endpoint: median survival time, dose: 50.0 mg/kg/injection, schedule: Q01DX005 (ip), vehicle: Klucel (hydroxypropylcellulose) (HPC)) 90 % of control and 103 % of control; (endpoint: median survival time, dose: 100.0 mg/kg/injection, schedule: Q01DX005 (ip), vehicle: Klucel (hydroxypropylcellulose) (HPC)) 95 % of control and 107 % of control; (endpoint: median survival time, dose: 200.0 mg/kg/injection, schedule: Q01DX005 (ip), vehicle: Klucel (hydroxypropylcellulose) (HPC)) 104 % of control.

Regarding `O=C(c1ccccc1)C(Br)C(C(=O)O)c1ccccc1` (configuration not stated), the T/C was 101 % of control under setting [2], 95 % of control under setting [3] and 95 % of control under setting [4].

Take `N=C(N)SSCc1ccco1`: the T/C (endpoint: mean survival time, dose: 5.0 mg/kg/injection, schedule: Q04DX002 (ip), vehicle: saline with Tween-80) is 96 % of control; the T/C (endpoint: mean survival time, dose: 10.0 mg/kg/injection, schedule: Q04DX002 (ip), vehicle: saline with Tween-80) was 103 % of control; the T/C (endpoint: mean survival time, dose: 20.0 mg/kg/injection, schedule: Q04DX002 (ip), vehicle: saline with Tween-80) is 100 % of control.

As for `O=S(=O)(O)C1=CC(=N\Cl)/C=CC/1=N/Cl`, the T/C is, setting by setting: (endpoint: median survival time, dose: 50.0 mg/kg/injection, schedule: Q01DX009 (ip), vehicle: saline with Tween-80) 110 % of control; (endpoint: median survival time, dose: 100.0 mg/kg/injection, schedule: Q01DX009 (ip), vehicle: saline with Tween-80) 119 % of control; (endpoint: median survival time, dose: 200.0 mg/kg/injection, schedule: Q01DX009 (ip), vehicle: saline with Tween-80) 108 % of control; (endpoint: median survival time, dose: 400.0 mg/kg/injection, schedule: Q01DX009 (ip), vehicle: saline with Tween-80) 120 % of control.

Regarding `O=C(Nc1ccccc1)Nc1ccc(Cl)c(Cl)c1`, the T/C is, setting by setting: (endpoint: mean survival time, dose: 100.0 mg/kg/injection, schedule: Q04DX003 (ip), vehicle: acetone) 98 % of control; (endpoint: mean survival time, dose: 200.0 mg/kg/injection, schedule: Q04DX003 (ip), vehicle: acetone) 101 % of control; (endpoint: mean survival time, dose: 400.0 mg/kg/injection, schedule: Q04DX003 (ip), vehicle: acetone) 106 % of control.

Turning to `C#CC12CCCCN1CCC2` (configuration not stated), the T/C runs as follows: (endpoint: mean survival time, dose: 100.0 mg/kg/injection, schedule: Q01DX001 (ip), vehicle: saline) 93 % of control; (endpoint: mean survival time, dose: 200.0 mg/kg/injection, schedule: Q01DX001 (ip), vehicle: saline) 97 % of control.

As for `O=C1C2CCCCC2C(=O)N1c1cccc2cccnc12` (configuration not stated), the T/C reads like this: (endpoint: mean survival time, dose: 50.0 mg/kg/injection, schedule: Q01DX001 (ip), vehicle: saline with Tween-80) 98 % of control; under setting [5], 95 % of control; under setting [6], 95 % of control.

As to `CCc1c(N=O)c(-c2ccccc2)n(O)[n+]1[O-]`, the T/C runs as follows: (endpoint: mean survival time, dose: 50.0 mg/kg/injection, schedule: Q01DX009 (ip), vehicle: Klucel (hydroxypropylcellulose) (HPC)) 104 % of control; (endpoint: mean survival time, dose: 100.0 mg/kg/injection, schedule: Q01DX009 (ip), vehicle: Klucel (hydroxypropylcellulose) (HPC)) 101 % of control; (endpoint: mean survival time, dose: 200.0 mg/kg/injection, schedule: Q01DX009 (ip), vehicle: Klucel (hydroxypropylcellulose) (HPC)) 95 % of control.

As to `CCCN(CCC)CCCC#N`, the T/C by setting is: (endpoint: mean survival time, dose: 50.0 mg/kg/injection, schedule: Q01DX009 (ip), vehicle: saline with Tween-80) 100 % of control; under setting [7], 101 % of control.

On to `CCOC(=O)C(Cc1ccccc1Cl)(NC(C)=O)C(=O)OCC`, for which the T/C under setting [2] was 100 % of control, the T/C under setting [3] was 102 % of control and the T/C under setting [4] is 91 % of control.

On to `C[C@]12CC[C@@H]3c4ccc(OC5CCCCO5)cc4CC[C@H]3[C@@H]1CC[C@@H]2O` (some centres not stated), for which the T/C was 108 % of control (endpoint: mean survival time, dose: 600.0 mg/kg/injection, schedule: Q01DX Z (ip), vehicle: steriod suspending solution) and 101 % of control (endpoint: mean survival time, dose: 800.0 mg/kg/injection, schedule: Q01DX Z (ip), vehicle: steriod suspending solution).

With `CC(=O)Nc1ccc2c(Nc3ccc(NS(C)(=O)=O)cc3)c3ccccc3nc2c1`, the T/C (endpoint: mean survival time, dose: 8.0 mg/kg/injection, schedule: Q01DX009 (ip), vehicle: saline with Tween-80) was 192 % of control; the T/C (endpoint: mean survival time, dose: 12.0 mg/kg/injection, schedule: Q01DX009 (ip), vehicle: saline with Tween-80) is 203 % of control; the T/C (endpoint: mean survival time, dose: 18.0 mg/kg/injection, schedule: Q01DX009 (ip), vehicle: saline with Tween-80) is 105 % of control; the T/C under setting [1] was 122 % of control; the T/C (endpoint: mean survival time, dose: 200.0 mg/kg/injection, schedule: Q04DX003 (ip), vehicle: saline) is 101 % of control.

As to `O=S(=O)(O)SCCN1CCOCC1`, the T/C is, setting by setting: (endpoint: mean survival time, dose: 100.0 mg/kg/injection, schedule: Q01DX009 (ip), vehicle: saline) 103 % of control; under setting [2], 101 % of control; (endpoint: mean survival time, dose: 200.0 mg/kg/injection, schedule: Q01DX009 (ip), vehicle: saline) 106 % of control; under setting [3], 101 % of control; (endpoint: mean survival time, dose: 400.0 mg/kg/injection, schedule: Q01DX009 (ip), vehicle: saline) 104 % of control; under setting [4], 100 % of control.

For the molecule `Cc1ccc([N+](=O)[O-])c2ccccc12`, the T/C under setting [7] was 91 % of control; the T/C under setting [2] is 88 % of control; the T/C (endpoint: mean survival time, dose: 200.0 mg/kg/injection, schedule: Q01DX009 (ip), vehicle: saline with Tween-80) is 91 % of control; the T/C under setting [3] was 90 % of control; the T/C (endpoint: mean survival time, dose: 400.0 mg/kg/injection, schedule: Q01DX009 (ip), vehicle: saline with Tween-80) is 95 % of control; the T/C under setting [4] was 94 % of control.

For `CCOC(=N)c1cn(C2OC(CO)C(O)C2O)c2nc[nH]c(=O)c12` (configuration not stated), under setting [8], the T/C was 119 % of control.

Turning to `COC1=CCc2c(OC)ccc(OC)c2C1`, the T/C (endpoint: mean survival time, dose: 12.5 mg/kg/injection, schedule: Q01DX009 (ip), vehicle: other) was 103 % of control; the T/C (endpoint: mean survival time, dose: 25.0 mg/kg/injection, schedule: Q01DX009 (ip), vehicle: other) was 103 % of control; the T/C (endpoint: mean survival time, dose: 50.0 mg/kg/injection, schedule: Q01DX009 (ip), vehicle: other) is 93 % of control; the T/C (endpoint: mean survival time, dose: 100.0 mg/kg/injection, schedule: Q01DX009 (ip), vehicle: other) is 95 % of control; the T/C (endpoint: mean survival time, dose: 200.0 mg/kg/injection, schedule: Q01DX009 (ip), vehicle: other) was 88 % of control.

In the case of `OCC(O)C(O)C(O)C(O)CO` (configuration not stated) (tested in a mixture with another compound), the T/C (endpoint: mean survival time, dose: 37.5 mg/kg/injection, schedule: Q01DX001 (ip), vehicle: saline) was 94 % of control; the T/C under setting [8] is 96 % of control; the T/C under setting [5] is 88 % of control and 104 % of control; the T/C under setting [2] was 93 % of control and 90 % of control; the T/C (endpoint: mean survival time, dose: 150.0 mg/kg/injection, schedule: Q01DX001 (ip), vehicle: saline) was 95 % of control; the T/C under setting [6] was 88 % of control and 98 % of control. Further, the T/C is 95 % of control and 90 % of control under setting [3]; 92 % of control and 93 % of control (endpoint: mean survival time, dose: 400.0 mg/kg/injection, schedule: Q01DX001 (ip), vehicle: saline with Tween-80); 97 % of control and 92 % of control under setting [4].
